Assay [1] deals with A673 Ewing's sarcoma cells. The assay is described as follows: Soft agar colony formation in the presence of histone deacetylase inhibitor. Format: cell-based. To be noted: 1.5 uM, versus ethanol carrier, FIG. 6. The method, then:
Cell Culture: Ewing's sarcoma cell lines were grown as described (Lessnick et al., 2002). Following retroviral infection, polyclonal cell populations were prepared by growth in the appropriate selective media. Soft agar assays were performed as described (Lessnick et al., 2002). Tet-A673 cells were generated by infection with pREV-TETOFF (Clontech) and selection with G418. A single clone was then infected with FLAG-EWS/FLI-pREV-TRE, and selected with hygromycin in the presence of 1 ug/ml doxycycline and G418 (Lessnick et al., 2002). Individual clones were tested for induction of FLAG-EWS/FLI as previously described (Lessnick et al., 2002).
To test the effect of a histone deacetylase inhibitor on NKX2.2 activity, A673 Ewing's sarcoma cells were seeded into soft agar in the presence of 1.5 uM tricostatin (TSA), or ethanol (the TSA carrier) (FIG. 6). […] Soft agar colony formation is one measure of oncogenic transformation. Thus, the histone deacetylase inhibitor TSA blocks oncogenic transformation of Ewing's sarcoma cells.

For a further assay, the target named is casein kinase II (CKII) (Homo sapiens, UniProt P68400). The settings on record: 5 μg/ml; cited from earlier work.
Sequence of casein kinase II (CKII) (P68400 whole entry): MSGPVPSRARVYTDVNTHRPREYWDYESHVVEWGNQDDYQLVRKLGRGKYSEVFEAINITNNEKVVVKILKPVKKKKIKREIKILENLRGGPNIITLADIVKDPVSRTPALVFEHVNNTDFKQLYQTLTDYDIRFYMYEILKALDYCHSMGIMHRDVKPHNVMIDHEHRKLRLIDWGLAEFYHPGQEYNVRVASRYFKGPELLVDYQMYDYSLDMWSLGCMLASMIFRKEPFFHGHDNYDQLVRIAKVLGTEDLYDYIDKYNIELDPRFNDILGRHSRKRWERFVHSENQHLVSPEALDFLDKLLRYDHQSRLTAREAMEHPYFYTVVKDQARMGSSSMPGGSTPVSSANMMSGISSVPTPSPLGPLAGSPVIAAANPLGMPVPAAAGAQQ

On to `CC(/C=C/C(=O)NO)=C\[C@@H](C)C(=O)c1ccc(N(C)C)cc1` [TSA, Trichostatin A], for which, in assay [1], the “soft agar colony formation (oncogenic transformation)” value is listed as “prevents Ewing's cells from forming colonies in soft agar”.
As for heparin, the “inhibition of the protein kinase activity of CKII” value at casein kinase II (CKII) is listed as greater than 90%.

These data come from patent US7939253B2, “Methods and compositions for the diagnosis and treatment of ewing's sarcoma” (The University of Utah Research Foundation, priority 2007, dated 2011).
